Columns and labels:
[1] = Nitric oxide gas bubbled through carrier, weight gain; assay type: physicochemical; conditions: NO gas bubbled 40 hr, 25 ° C.
Experimental: This example illustrates one technique for preparing a composition in accordance with one embodiment of the invention. An accurate amount of a carrier (HNC 167-62) (see below) was introduced into a system. The carrier weight used in these experiments was approximately 250 g and the vessel size was 500 ml. The vessel was equipped with a mechanical stirrer, gas inlet, and gas outlet and was previously purged with argon for about an hour. The temperature of the carrier was kept at about 25-30° C. NO gas regulated at 5 psi (1 psi is about 6,900 Pa) and was then introduced at a controlled rate of about 1 bubble/s with continuous stirring. […] After 6 hours, the weight of the carrier had increased by 0.15%, by 12 hours by 0.25%, and by 24 hours by 0.56%. These increases in weight were believed to be significant considering the relative small molecular weight of NO versus the carrier. […] The carrier also can solidify upon cooling if the carrier is initially a solid at lower temperature.
Each carrier was taken in a 500 mL three necked flask equipped with a mechanical stirrer, gas inlet and a gas outlet. The system was purged with argon for one hour at room temperature (25° C.). Then nitric oxide gas was bubbled into the system. Then, nitric oxide gas was bubbled through carrier for stipulated amount of time. The changes in weight and color were noted. […]

[2] = test system: micro-capillary blood flow to skin; assay: Laser Doppler study in closed Hilltop chamber on forearm, Example 5; assay type: in vivo, human; conditions: applied to the skin at 1/10% in alcohol
From the text: The formulation used in these studies contained nitric oxide dispersed in a lipid matrix. […] Nitric oxide is a very rapid acting molecule, and these studies used a system that employed laser Doppler with a covered chamber. The formulation was placed into the chamber and then attached to the skin by an adhesive layer on the covering. This provided a stable measuring device as determined by multiple normal evaluations of the capillary blood flow without treatment of nitric oxide.
A known positive control, methyl nicotinate, was applied to the skin at a concentration of 1/10% in alcohol. […] The vascular dynamics are such that when the blood vessels dilate physical parameters follow Bernoulli's law. […] The laser Doppler device accurately measured these parameters.
In these studies, the participants were healthy females aged 30 to 55 years. They were in good health as determined by the medical history and were not taking any prescription medications. All study participants read and signed the informed consent statement prior to any study procedures being performed. […]
A Moor Instruments DRT4 Laser Doppler Blood Flow Monitor (Devon, England) was used in these studies. The laser Doppler technique measured blood flow in the microcapillaries of the skin that are close to the skin surface and the blood flow in underlying arterioles and venules that help to regulate skin temperature. […]

[3] = test system: capillary circulation of the skin; assay: Laser Doppler study of creams in five human subjects, Example 7; assay type: in vivo; conditions: positive control formulation containing 0.1% methyl nicotinate
From the text: This example illustrates delivery of nitric oxide formulations to five human subjects, using procedures and formulations similar to those discussed in Example 5. Each person served as their own control for the testing. A Moor Instruments Laser Doppler was used to determine circulation. […] The formulations used produce positive, almost immediate results when applied to the skin which, in these studies, was manifested by vasodilatation of the cutaneous vascular system.
For each subject, the following creams were applied: a negative control formulation (containing no NO), 0.010 gram of a 10,000 ppm NO formulation, 0.020 gram of a 10,000 ppm NO formulation, and a positive control formulation containing 0.1% methyl nicotinate. The formulations were prepared using procedures similar to those discussed in Example 1.

SMILES	% Wt. gain [1] [%]	laser Doppler response to positive control [2]	vasodilatation (laser Doppler) [3]
OCCCO [1,3-Propanediol, 1,3-propanediol]	0.09		
COC(=O)c1cccnc1 [methyl nicotinate]		rapid response typical of the vasodilator	vasodilatation was observed
